# What was measured:
# [1] = test system: Caco-2 cells, HT-29 cells and Raji-B cells; test: Cell uptake of curcumin in three-cell model, flow cytometry; conditions: curcumin 20 μg/mL, 4 hours; verapamil 300 μg/mL, sodium azide 1 mg/mL, ketoconazole 10 μg/mL
# [2] = Dispersion in water (photographs, FIG. 1); format: physicochemical
smiles,measurement,setting,value
"COc1cc(/C=C/C(=O)CC(=O)/C=C/c2ccc(O)c(OC)c2)ccc1O [Curcumin raw material, Curcumin]","average value (intake of curcumin by cells, fluorescence)",[1],19.4
same,dispersion in water (in words),[2],insoluble in water

# From patent publication US12485096B2 (CHENLAND NUTRITIONALS, INC., priority 2020, dated 2025)
